Laboratory results reported in ChEMBL document CHEMBL2429852, “Synthesis and evaluation of new chalcones, derived pyrazoline and cyclohexenone derivatives as potent antimicrobial, antitubercular and antileishmanial agents” (Med Chem Res, 2013).
In brackets after ≈: the same amount, converted by molar mass.

What was measured:
Staphylococcus aureus [1] = test: Antibacterial activity against Staphylococcus aureus MTCC 96 assessed as growth inhibition by broth microdilution method; format: functional
Candida albicans [2] = test: Antifungal activity against Candida albicans MTCC 227 assessed as growth inhibition by broth microdilution method; format: functional
Pseudomonas aeruginosa [3] = test: Antibacterial activity against Pseudomonas aeruginosa MTCC 2488 assessed as growth inhibition by broth microdilution method; format: functional
[4] = Selectivity index, ratio of CC50 for mouse J774A1 cells to IC50 for promastigote stage of Leishmania braziliensis H3; format: functional, J774.A1
Aspergillus clavatus = test: Antifungal activity against Aspergillus clavatus MTCC 1323 assessed as growth inhibition by broth microdilution method; format: functional
Aspergillus niger = test: Antifungal activity against Aspergillus niger MTCC 282 assessed as growth inhibition by broth microdilution method; format: functional
Escherichia coli = test: Antibacterial activity against Escherichia coli MTCC 442 assessed as growth inhibition by broth microdilution method; format: functional
[5] = Cytotoxicity against mouse J774A1 cells after 72 hrs by MTT assay; format: cell-based, J774.A1
Leishmania braziliensis = test: Antileishmanial activity against promastigote stage of Leishmania braziliensis H3 assessed as parasite growth inhibition after 72 hrs by Neubauer chamber counting method; format: functional, organism-based
Streptococcus pyogenes = test: Antibacterial activity against Streptococcus pyogenes MTCC 443 assessed as growth inhibition by broth microdilution method; format: functional
Candida albicans [6] = test: Potency index, ratio of griseofulvin MIC to compound MIC for Candida albicans MTCC 227; format: functional
[7] = tested on: Mycobacterium tuberculosis; test: Antitubercular activity against Mycobacterium tuberculosis H37Rv assessed as growth inhibition after 12 to 28 days by Lowenstein-Jensen agar method; format: functional; settings: for MIC: Mycobacterium tuberculosis, H37Rv
Staphylococcus aureus [8] = test: Potency index, ratio of ampicillin MIC to compound MIC for Staphylococcus aureus MTCC 96; format: functional
Pseudomonas aeruginosa [9] = test: Potency index, ratio of ampicillin MIC to compound MIC for Pseudomonas aeruginosa MTCC 2488; format: functional
[10] = Leishmania braziliensis, H3, 72 h, read-out: IC50

Row | Compound | MIC99 (Staphylococcus aureus [1]) | MIC99 (Candida albicans [2]) | MIC99 (Pseudomonas aeruginosa [3]) | Ratio CC50/IC50 [4] | MIC99 (Aspergillus clavatus) | MIC99 (Aspergillus niger) | MIC99 (Escherichia coli) | CC50 at 72 h [5] | IC50 (Leishmania braziliensis; [10]) | MIC99 (Streptococcus pyogenes) | Ratio (Candida albicans [6]) | growth inhibition (GI) [7] | MIC [7] | IC50 (Leishmania braziliensis) | Ratio (Staphylococcus aureus [8]) | Ratio (Pseudomonas aeruginosa [9])
1 | COc1cc(/C=C/C(=O)c2cccc([N+](=O)[O-])c2)cc(OC)c1OC | 100 µg/mL | 250 µg/mL | 250 µg/mL | 5.26 | > 1000 µg/mL | > 1000 µg/mL | 250 µg/mL | 49 µM | 9.3 µM | 100 µg/mL | 2 | 99% | 25 µg/mL (≈ 72.8 µM) | – | – | –
2 | COc1ccc(C2CC(c3cccc([N+](=O)[O-])c3)=NN2C(C)=O)cc1 (stereo not given) | 250 µg/mL | 1000 µg/mL | 250 µg/mL | – | 1000 µg/mL | 1000 µg/mL | 250 µg/mL | – | – | 250 µg/mL | – | 99% | 250 µg/mL (≈ 737 µM) | Not Active | – | –
3 | COc1ccc(C2CC(c3cccc([N+](=O)[O-])c3)=NN2C(C)=O)cc1OC (stereo not given) | 125 µg/mL | 200 µg/mL | 250 µg/mL | – | 500 µg/mL | 500 µg/mL | 500 µg/mL | – | – | 125 µg/mL | 2 | 99% | 500 µg/mL (≈ 1350 µM) | Not Active | – | –
4 | CC(=O)N1N=C(c2cccc([N+](=O)[O-])c2)CC1c1ccc2c(c1)OCO2 (stereo not given) | 250 µg/mL | 500 µg/mL | 200 µg/mL | – | 500 µg/mL | 500 µg/mL | 250 µg/mL | – | – | 250 µg/mL | – | 99% | 250 µg/mL (≈ 708 µM) | Not Active | – | –
5 | COc1cc(OC)c(OC)cc1/C=C/C(=O)c1cccc([N+](=O)[O-])c1 | 500 µg/mL | 1000 µg/mL | 125 µg/mL | – | 1000 µg/mL | 1000 µg/mL | 125 µg/mL | – | – | 500 µg/mL | – | 99% | 250 µg/mL (≈ 728 µM) | Not Active | – | –
6 | O=[N+]([O-])c1cccc(C2=NNC(c3ccc4c(c3)OCO4)C2)c1 (stereo not given) | 100 µg/mL | 250 µg/mL | 200 µg/mL | – | 1000 µg/mL | 1000 µg/mL | 100 µg/mL | – | – | 125 µg/mL | 2 | 98% | 500 µg/mL (≈ 1610 µM) | Not Active | – | –
7 | O=[N+]([O-])c1cccc(C2=NNC(c3ccc4ccccc4c3)C2)c1 (stereo not given) | 50 µg/mL | 100 µg/mL | 25 µg/mL | – | 250 µg/mL | 100 µg/mL | 250 µg/mL | – | – | 125 µg/mL | 5 | 99% | 62.5 µg/mL (≈ 197 µM) | Not Active | 2 | 4
8 | CCOC(=O)C1C(=O)C=C(c2cccc([N+](=O)[O-])c2)CC1c1ccc(OC)cc1 (stereo not given) | 250 µg/mL | 500 µg/mL | 200 µg/mL | – | > 1000 µg/mL | > 1000 µg/mL | 100 µg/mL | – | – | 500 µg/mL | – | 98% | 500 µg/mL (≈ 1260 µM) | Not Active | – | –
9 | CCOC(=O)C1C(=O)C=C(c2cccc([N+](=O)[O-])c2)CC1c1ccc2c(c1)OCO2 (stereo not given) | 250 µg/mL | 500 µg/mL | 200 µg/mL | – | 1000 µg/mL | 1000 µg/mL | 125 µg/mL | – | – | 200 µg/mL | – | 99% | 250 µg/mL (≈ 611 µM) | Not Active | – | –
10 | CCOC(=O)C1C(=O)C=C(c2cccc([N+](=O)[O-])c2)CC1c1cc(OC)c(OC)c(OC)c1 (stereo not given) | 200 µg/mL | 100 µg/mL | 200 µg/mL | – | > 1000 µg/mL | > 1000 µg/mL | 200 µg/mL | – | – | 200 µg/mL | – | 99% | 250 µg/mL (≈ 549 µM) | Not Active | – | –
11 | COc1ccc(/C=C/C(=O)c2cccc([N+](=O)[O-])c2)cc1 | 500 µg/mL | 1000 µg/mL | 200 µg/mL | – | 200 µg/mL | 200 µg/mL | 200 µg/mL | – | – | 500 µg/mL | – | 98% | 1000 µg/mL (≈ 3530 µM) | Not Active | – | –
12 | COc1ccc(/C=C/C(=O)c2cccc([N+](=O)[O-])c2)c(OC)c1OC | 250 µg/mL | 1000 µg/mL | 200 µg/mL | 10.06 | > 1000 µg/mL | > 1000 µg/mL | 200 µg/mL | 89.5 µM | 8.9 µM | 250 µg/mL | – | 98% | 500 µg/mL (≈ 1460 µM) | – | – | –
